≈ marks a conversion by molar mass, not a printed value.

One data set concerns IL-2 production. Briefly: Interleukin-2 assay (IL-2 production by ELISA after PHA/TPA stimulation). Format: cell-based. The note with it: Jurkat E6-1 cells or human lymphocytes stimulated with PHA 10 µg/mL and 10^-8 M TPA; 16-24 hours. The protocol: (§1) Jurkat E6-1 cell line (ATCC), a human leukemic T cell line or lymphocytes prepared from fresh human blood, are grown in complete culture medium consisting of RPMI-1640 (Mediatech) supplemented with 10% v/v fetal bovine serum (HyClone, Logen, Vermont), penicillin (100 units/mL), streptomycin ([…]), and 2mM L-glutamine (GIBCO, Grand Island, New York). The cells are grown to a concentration of between 1.2 to 1.8 X 10^6 cells/mL before use. The cells are then centrifuged at low speed and resuspended to a concentration of 1.25 X 10^6 cells/mL in fresh medium.
(§2) The compounds to be tested are dissolved in DMSO, and water is added to make a 50% DMSO/water solution. The compounds are then diluted in sterile water such that the DMSO concentrations are less then 0.05%. The cells at a concentration of 1.25 X 10^6 cells/mL are stimulated with phytohemagglutinin 10 µg/mL (PHA) and 10^-8 M phorbol ester (12-O-tetradecanoylphorbol 13-acetate: TPA), (Sigma, St. Louis, Missouri). The compounds are then added and the cells are plated in flat-bottom tissue culture plates (Falcon, Lincoln Park, New Jersey), with 250,000 cells/well. Plates are then incubated at 37°C in a 5% CO2 atmosphere.
(§3) After incubation (16-24 hours), the cells are assayed for IL-2 production and cell viability (MTT). IL-2 production is assayed utilizing a solid phase ELISA immunoassay, sold in kit form by R&D Systems, Inc., Minneapolis, Minnesota.
In general terms: An ELISA detects its analyte on a solid surface through an enzyme-linked reagent.

The next data set relates to Jurkat E6-1 cell line. Briefly: Cell viability (MTT mitochondrial enzyme assay). Format: cell-based, human. The note with it: cells of the IL-2 assay after removal of supernatant, MTT 4 hours at 37°C. The protocol: as §1, §2, §3
Cell viability is measured by the use of a mitochondrial enzyme assay. After removal of the supernatant for the IL-2 assay, Cell Titer 96 (a commercial solution of MTT obtained from Promega, Madison, Wisconsin), is added to the plates and incubated for 4 hours at 37°C. A solubilization solution is then added and incubated overnight. The plates are then read on an ELISA plate reader at a wavelength of 570 nm. Table II presents the results for the Interleukin-2 assay, the cell viability assay and the ratio of cell viability/IL-2 inhibition.
For orientation: Tetrazolium assays rely on reduction of a dye to a coloured formazan, in cell work by metabolically active cells.

For data set [1], the system named is adjuvant-induced arthritis. Nature of the data set: Anti-inflammatory activity in the rat model of adjuvant-induced arthritis. Format: in vivo, Male Wistar-Lewis rats. The settings on record: 12 consecutive days. The protocol: Following generally the procedure of Pearson and Wood, Arth. Rheum., 2, 44 (1959), the anti-inflammatory activity of the following compounds was determined in a rat model of adjuvant-induced arthritis. Male Wistar-Lewis rats (Mollegaard, Breeding Centre Ltd, BIBY, DK 4623 LI, SKENSVED, P.P. Box 28, DK) with a body weight between 160 g and 200 g are used. Freund's adjuvant (0.1 mL, 6 mg Mycobacterium smegmatis suspension per mL in heavy white paraffin oil, Merck/Darmstadt) was injected into the base of the tail. […] The animals received standardized food Altromin-R (Altrogge, Lage) and had free access to water. The compounds were administered i.p. (a suspension in carboxymethyl cellulose solution in an injection volume of 0.5 mL/100 g body weight) on 12 consecutive days, starting with the day of the adjuvant injection. On day 1 and day 18 of the study, the volume of both hind paws and the body weight were recorded, and in addition on day 18 the arthritis index.

A short description of data set [2]: Body weight change (weight gain) in the rat model of adjuvant-induced arthritis. Format: in vivo, Male Wistar-Lewis rats. The settings on record: 10 mg/kg/day i.p.; weight gain between day 1 and day 21. The method, then: Following generally the procedure of Pearson and Wood, Arth. Rheum., 2, 44 (1959), the anti-inflammatory activity of the following compounds was determined in a rat model of adjuvant-induced arthritis. Male Wistar-Lewis rats (Mollegaard, Breeding Centre Ltd, BIBY, DK 4623 LI, SKENSVED, P.P. Box 28, DK) with a body weight between 160 g and 200 g are used. Freund's adjuvant (0.1 mL, 6 mg Mycobacterium smegmatis suspension per mL in heavy white paraffin oil, Merck/Darmstadt) was injected into the base of the tail. Between day 10 and day 14 of the test, immunopathological processes let to chronic inflammation, especially in the form of arthritic and periarthritic symptoms in all parts of the body. The animals received standardized food Altromin-R (Altrogge, Lage) and had free access to water. The compounds were administered i.p. (a suspension in carboxymethyl cellulose solution in an injection volume of 0.5 mL/100 g body weight) on 12 consecutive days, starting with the day of the adjuvant injection. On day 1 and day 18 of the study, the volume of both hind paws and the body weight were recorded, and in addition on day 18 the arthritis index. Cyclosporin A and Prednisolone were used as standard compounds. In addition, table IV presents the percent change in body weight (weight gain) between day 1 and day 21 of the above test.

In general, % Inhibition refers to the share of the control response that was lost under treatment. As for `CC(C)C12OC1C1OC13C1(C)CCC4=C(COC4=O)C1CCC3(O)C2O` (stereo not drawn) [Example 1, [5aR-(5aα,6α,6aα,7aα,7bβ,8aS*,8bα)]-3,3b,4,5,5a,6,6a,7a,7b,8b,9,10-dodecahydro-5a,6-dihydroxy-8b-methyl-6a-(1-methylethyl)-1H-bisoxireno[4b,5:6,7]phenanthro[1,2-c]furan-1-one], the IC50/IL-2 in the data set with IL-2 production is 0.036 µg/mL (≈ 0.0993 µM). The same molecule returned an IC50/MTT in the data set with Jurkat E6-1 cell line of 0.3 to 0.5 µg/mL. Also, the “% Inhibition” value in data set [1] (10 mg/kg/day i.p.) was 90%. Moreover, the “% Change in Body Weight” value in data set [2] was 29.9%.

Regarding `C[C@]12C=CC(=O)C=C1CC[C@@H]1[C@@H]2[C@@H](O)C[C@@]2(C)[C@H]1CC[C@]2(O)C(=O)CO` [Prednisolone], in data set [1] (15 mg/kg/day i.p.), the “% Inhibition” value stood at 100%.

The IC50 is the concentration at which inhibition is half-maximal. Low readings indicate higher potency, high ones lower potency. Regarding `CC(C)[C@]12O[C@H]1[C@@H]1O[C@]13[C@]1(O[C@H]1C[C@H]1C4=C(CC[C@@]13C)C(=O)OC4)[C@@H]2O` [Triptolide], the IC50 in the data set on IL-2 production was 0.001 to 0.003 µg/mL (≈ 0.00277 to 0.00832 µM); in the data set with Jurkat E6-1 cell line (Homo sapiens, Jurkat E6.1), 0.005 µg/mL (≈ 0.0139 µM). The “% Inhibition” value in data set [1] (0.2 mg/kg/day i.p.) was 70%; in data set [1] (0.4 mg/kg/day i.p.), 85%; in data set [1] (0.8 mg/kg/day i.p.), 76%.

“[1S-(1α,2β,3α,3aβ,4aR*,4bα,11aα)]-3-chloro-1,2,3,3a,4b,5,6,9,9b,10,11,11a-dodecahydro-1,2,11a-trihydroxy-4b-methyl-2-(1-methylethyl)-7H-oxireno[4b,5]phenanthro[1,2-c]furan-7-one [Example 2]” gave an IC50/IL-2 in the data set with IL-2 production of 0.06 µg/mL. The molecule further registered an IC50/MTT in the data set on Jurkat E6-1 cell line of 0.55 µg/mL.

These data come from patent publication EP0983275B1, “NOVEL TRIPTOLIDE DERIVATIVES USEFUL IN THE TREATMENT OF AUTOIMMUNE DISEASES” (priority 1997, dated 1998).
